Results from patent US20210236476A1, “METHODS OF TREATING CANCER WITH SMALL MOLECULE PD-L1 INHIBITORS” (CHEMOCENTRYX, INC., priority 2018, published 2021).
pIC50: −log10 of the molar value.

Each molecule was assayed against T1, human PD-L1 / human PD-1 interaction (Homo sapiens, UniProt Q9NZQ7) (assay: ELISA of PD-1/PD-L1 interaction).
T1 construct: purchased R&D (PD-L1); ACRO Biosystems (PD-1, biotin)
Type: binding
Protocol: The activity of Compound 1.041 was assessed with an ELISA assay assessing the direct binding of recombinant PD-1 and PD-L1 proteins (FIG. 1A), a dimerization ELISA assay assessing the direct binding/dimerization of recombinant PD-L1 proteins (FIG. 1B), a cell based assay measuring the downstream signaling following the interaction of PD-1 and PD-L1 using a Luciferase reporter assay with cell lines overexpressing PD-1 and PD-L1 (FIG. 1C), and a mixed lymphocyte reaction assay measuring the functional outcome of upregulation of IFNg secretion, using allogenic primary human immune cells (FIG. 1D). Briefly, the mixed lymophocyte reaction assay was performed as follows: Dendritic cells and CD4+T Cells from unmatched donors were cultured together for 5 days in 96 well-flat bottom plates. Test compound was added as indicated at starting concentration of 1 μM with 1:4 dilutions with DMSO. Supernatants were harvested after 5 days of incubation and detection of human IFNg was performed by ELISA. […]
96 Well plates were coated with 1 μg/mL of human PD-L1 (obtained from R&D) in
PBS overnight at 4° C. The wells were then blocked with 2% BSA in PBS (WN) with 0.05% TWEEN-20 for 1 hour at 37° C. The plates were washed 3 times with PBS/0.05% TWEEN-20 and the compounds were serial diluted (1:5) in dilution medium and added to the ELISA plates. Human PD-1 and biotin 0.3μg/mL (ACRO Biosystems) were added and incubated for 1 hour at 37° C. then washed 3 times with PBS/0.05% TWEEN-20. A second block was performed with 2% BSA in PBS (WN)/0.05% TWEEN-20 for 10 min at 37° C. and was washed 3 times with PBS/0.05% TWEEN-20. Streptavidin—HRP was added for 1 hour at 37° C. then washed 3 times with PBS/0.05% TWEEN-20. TMB substrate was added and reacted for 20 min at 37° C. A stop solution (2 N aqueous H2SO4) was added. The absorbance was read at 450 nm using a micro-plate spectrophotometer.

T1 sequence (Q9NZQ7 19-239 limits assumed): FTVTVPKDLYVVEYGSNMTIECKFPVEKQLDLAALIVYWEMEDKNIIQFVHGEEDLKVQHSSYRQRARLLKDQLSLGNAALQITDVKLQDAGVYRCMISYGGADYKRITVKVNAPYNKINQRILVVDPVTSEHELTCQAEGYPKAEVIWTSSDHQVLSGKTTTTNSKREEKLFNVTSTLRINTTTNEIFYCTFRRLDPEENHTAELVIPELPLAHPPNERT

Row | SMILES | pIC50
1 | Cc1c(OCCCN2CCC(C)(F)CC2)cccc1-c1cccc2c1CC[C@@H]2Oc1cc(OCc2cncc(C#N)c2)c(CNC[C@@H]2CCC(=O)N2)cc1Cl | > 8.30
2 | Cc1c(OCCCN2CCC(F)CC2)cccc1-c1cccc2c1CC[C@@H]2Oc1cc(OCc2cc(C#N)cc(C#N)c2)c(CN[C@@H]2CCC(=O)NC2)cc1Cl | > 8.30
3 | C[C@@](CO)(NCc1cc(Cl)c(O[C@H]2CCc3c(-c4cccc(OCCCN5CC(O)C5)c4Cl)cccc32)cc1OCc1cncc(C#N)c1)C(=O)O [drawing 79] | > 8.30
4 | N#Cc1cncc(COc2cc(O[C@H]3CCc4c(-c5cccc(OCCCN6CC7(CC(F)C7)C6)c5Cl)cccc43)c(Cl)cc2CNC[C@@H]2CCC(=O)N2)c1 | > 8.30
5 | N#Cc1cncc(COc2cc(O[C@H]3CCc4c(-c5cccc(OCCCN6CC(O)C6)c5Cl)cccc43)c(Cl)cc2CNC[C@@H]2CCC(=O)N2)c1 | > 8.30
6 | Cc1c(OCCCN2CCC(O)CC2)cccc1-c1cccc2c1CC[C@H]2Oc1cc(OCc2cncc(C#N)c2)c(CN[C@H](C(=O)O)[C@@H](C)O)cc1Cl | > 8.30
7 | Cc1c(OCCCN2CCC(O)CC2)cccc1-c1cccc2c1CC[C@@H]2Oc1cc(OCc2cncc(C#N)c2)c(CN[C@@H]2CCCC[C@H]2O)cc1Cl | > 8.30
8 | CC(CO)(CO)NCc1cc(Cl)c(O[C@H]2CCc3c(-c4cccc(OCCCN5CCNC(=O)C5)c4Cl)cccc32)cc1OCc1cncc(C#N)c1 | > 8.30
9 | C[C@@](CO)(NCc1cc(Cl)c(OC2CCc3c(-c4cccc(OCCCN5CC(O)C5)c4Cl)cc(F)cc32)cc1OCc1cncc(C#N)c1)C(=O)O (stereo partly shown) | > 8.30
10 | N#Cc1cncc(COc2cc(O[C@H]3CCc4c(-c5cccc(OCCCN6CCC(F)CC6)c5Cl)cccc43)c(Cl)cc2CN[C@H]2CC[C@@H]2O)c1 | > 8.30
11 | CC1(O)CN(Cc2cc(Cl)c(O[C@H]3CCc4c(-c5cccc(OCCCN6CCC(F)CC6)c5Cl)cccc43)cc2OCc2cncc(C#N)c2)C1 | > 8.30
12 | Cc1c(OCCCN2CCC[C@H]2CO)cccc1-c1cccc2c1CC[C@@H]2Oc1cc(OCc2cncc(C#N)c2)c(CN[C@H](C(=O)O)[C@@H](C)O)cc1Cl | > 8.30
13 | CCCC(CO)(NCc1cc(Cl)c(O[C@H]2CCc3c(-c4cccc(OCCCN5CC(O)C5)c4Cl)cccc32)cc1OCc1cncc(C#N)c1)C(=O)O (stereo partly shown) | > 8.30
14 | N#Cc1cncc(COc2cc(O[C@H]3CCc4c(-c5cccc(OCCCN6CCC(F)CC6)c5Cl)cccc43)c(Cl)cc2CN[C@H]2CCC[C@@H]2O)c1 | > 8.30
15 | N#Cc1cncc(COc2cc(O[C@H]3CCc4c(-c5cccc(OCCCN6CC7(CC(O)C7)C6)c5Cl)cccc43)c(Cl)cc2CN[C@@H]2CCC[C@H]2O)c1 | > 8.30
16 | Cc1c(OCCCN2CCC[C@@H](O)C2)cccc1-c1cccc2c1CC[C@@H]2Oc1cc(OCc2cncc(C#N)c2)c(CN[C@H](C(=O)O)[C@@H](C)O)cc1Cl | > 8.30
17 | Cc1c(OCCCN2CC[C@H](F)C2)cccc1-c1cccc2c1CC[C@@H]2Oc1cc(OCc2cncc(C#N)c2)c(CN[C@@H]2CCCC[C@@H]2O)cc1Cl | > 8.30
18 | N#Cc1cncc(COc2cc(O[C@H]3CCc4c(-c5cccc(OCCCN6CCC(O)CC6)c5Cl)cccc43)c(Cl)cc2CNC[C@@H]2CCC(=O)N2)c1 | > 8.30
19 | Cc1c(OCCCN2CCC(O)CC2)cccc1-c1cccc2c1CC[C@@H]2Oc1cc(OCc2cncc(C#N)c2)c(CN[C@@](C)(CO)C(=O)O)cc1Cl | > 8.30
20 | Cc1c(OCCCN2CCC(C)(O)CC2)cccc1-c1cccc2c1CC[C@@H]2Oc1cc(OCc2cc(C#N)cc(C#N)c2)c(CNC[C@@H]2CCC(=O)N2)cc1Cl | > 8.30
21 | CN(Cc1cc(Cl)c(O[C@H]2CCc3c(-c4cccc(OCCCN5CC(O)C5)c4Cl)cccc32)cc1OCc1cncc(C#N)c1)[C@@](C)(CO)C(=O)O | > 8.30
22 | Cc1c(OCCCN2CCC(O)CC2)cccc1-c1cccc2c1CC[C@@H]2Oc1cc(OCc2cncc(C#N)c2)c(CN2CC(C(=O)O)C2)cc1Cl | > 8.30
23 | C[C@@H](O)[C@H](NCc1cc(Cl)c(O[C@H]2CCc3c(-c4cccc(OCCCN5CCC(F)CC5)c4Cl)cccc32)cc1OCc1cncc(C#N)c1)C(=O)NS(C)(=O)=O | > 8.30
24 | N#Cc1cc(C#N)cc(COc2cc(O[C@@H]3c4cccc(-c5cccc(OCCCN6CC(O)C6)c5Cl)c4C[C@@H]3F)c(Cl)cc2CNC[C@H]2CCC(=O)N2)c1 | > 8.30
25 | N#Cc1cncc(COc2cc(O[C@H]3CCc4c(-c5cccc(OCCCN6CC7(CC(O)C7)C6)c5Cl)cccc43)c(Cl)cc2CNC[C@@H]2CCC(=O)N2)c1 | > 8.30
26 | Cc1c(OCCCN2CCCC[C@H]2C)cccc1-c1cccc2c1CC[C@@H]2Oc1cc(OCc2cc(C#N)cc(C#N)c2)c(CNC[C@H]2CCC(=O)N2)cc1Cl | > 8.30

Row | SMILES | pIC50
27 | Cc1c(OCCCN[C@@H]2CCCC[C@@H]2O)cccc1-c1cccc2c1CC[C@@H]2Oc1cc(OCc2cncc(C#N)c2)c(CN[C@H](C(=O)O)[C@@H](C)O)cc1Cl | > 8.30
28 | N#Cc1cncc(COc2cc(O[C@H]3CCc4c(-c5cccc(OCCCN6CCCCC6)c5Cl)cccc43)c(Cl)cc2CNC[C@@H]2CCC(=O)N2)c1 | > 8.30
29 | N#Cc1cncc(COc2cc(O[C@H]3CCc4c(-c5cccc(OCCCN6CCC(F)CC6)c5Cl)cccc43)c(Cl)cc2CN2CC(C(=O)O)C2)c1 | > 8.30
30 | N#Cc1cncc(COc2cc(O[C@H]3CCc4c(-c5cccc(OCCCN6CCC(F)CC6)c5Cl)cccc43)c(Cl)cc2CN[C@@H]2CC[C@H]2O)c1 | > 8.30
31 | Cc1c(OCCCN2C(C)CCC2C)cccc1-c1cccc2c1CC[C@@H]2Oc1cc(OCc2cc(C#N)cc(C#N)c2)c(CN[C@H]2CCC(=O)NC2)cc1Cl (stereo partly shown) | > 8.30
32 | N#Cc1cncc(COc2cc(O[C@H]3CCc4c(-c5cccc(OCCCN6CC7(CC(O)C7)C6)c5Cl)cccc43)c(Cl)cc2CN[C@H]2CCC[C@H]2O)c1 | > 8.30
33 | Cc1c(OCCCN2CCCCC2)cccc1-c1cccc2c1CC[C@@H]2Oc1cc(OCc2cncc(C#N)c2)c(CNC[C@H]2CCC(=O)N2)cc1Cl | > 8.30
34 | CCOc1cc(O[C@H]2CCc3c(-c4cccc(OCCCN5CCCC5(C)C)c4C)cccc32)c(Cl)cc1CNC[C@@H]1CCC(=O)N1 | > 8.30
35 | Cc1c(OCCCN2CCC(C)CC2)cccc1-c1cccc2c1CC[C@@H]2Oc1cc(OCc2cc(C#N)cc(C#N)c2)c(CNC[C@H]2CCC(=O)N2)cc1Cl | > 8.30
36 | Cc1c(OCCCN2CCCC2C(C)C)cccc1-c1cccc2c1CC[C@@H]2Oc1cc(OCc2cc(C#N)cc(C#N)c2)c(CN[C@H]2CCC(=O)NC2)cc1Cl (stereo partly shown) | 6.30 to 8.30
37 | C[C@@H](O)[C@H](NCc1cc(Cl)c(O[C@H]2CCc3c(-c4cccc(OCCCN5CCC(O)CC5)c4Cl)cccc32)cc1OCc1cncc(C#N)c1)C(=O)O | > 8.30
38 | N#Cc1cncc(COc2cc(O[C@H]3CCc4c(-c5cccc(OCCCN6CCC(F)CC6)c5Cl)cccc43)c(Cl)cc2CNC[C@H]2CCC(=O)N2)c1 | > 8.30
39 | Cc1c(OCCCN2CCC(O)CC2)cccc1-c1cccc2c1CC[C@@H]2Oc1cc(OCc2cncc(C#N)c2)c(CN2CC[C@@H](O)C2)cc1Cl | > 8.30
40 | Cc1c(OCCCN2CCC(O)CC2)cccc1-c1cccc2c1CC[C@@H]2Oc1cc(OCc2cncc(C#N)c2)c(CN2CCC(O)CC2)cc1Cl | > 8.30
41 | Cc1c(OCCCN2CCC(F)CC2)cccc1-c1cccc2c1CC[C@@H]2Oc1cc(OCc2cc(C#N)cc(C#N)c2)c(CNCC(=O)NS(C)(=O)=O)cc1Cl | > 8.30
42 | Cc1c(OCCCN2CC(O)C2)cccc1-c1cccc2c1CC[C@@H]2Oc1cc(OCc2cncc(C#N)c2)c(CNCC2CCC(=O)N2)cc1Cl (stereo partly shown) | > 8.30
43 | N#Cc1cncc(COc2cc(O[C@H]3CCc4c(-c5cccc(OCCCN6CC(O)C6)c5Cl)cccc43)c(Cl)cc2CN2CC3(CC(O)C3)C2)c1 | > 8.30
44 | N#Cc1cncc(COc2cc(O[C@H]3CCc4c(-c5cccc(OCCCN6CCNC(=O)C6)c5Cl)cccc43)c(Cl)cc2CNC2(C(=O)O)CCC2)c1 | > 8.30
45 | Cc1c(OCCCN2CCC(O)CC2)cccc1-c1cccc2c1CC[C@@H]2Oc1cc(OCc2cncc(C#N)c2)c(CN(C)[C@H](C(=O)O)[C@@H](C)O)cc1Cl | > 8.30
46 | CCOc1cc(O[C@H]2CCc3c(-c4cccc(OCCCN5C(C)CC5(C)C)c4C)cccc32)c(Cl)cc1CNC[C@@H]1CCC(=O)N1 (stereo partly shown) | > 8.30
47 | Cc1c(OCCCN2CCCCC2)cccc1-c1cccc2c1CC[C@@H]2Oc1cc(OCc2cc(C#N)cc(C#N)c2)c(CNC[C@H]2CCC(=O)N2)cc1Cl | > 8.30
48 | C[C@@H](O)[C@H](NCc1cc(Cl)c(O[C@H]2CCc3c(-c4cccc(OCCCN5CCC(O)CC5)c4Cl)cccc32)cc1OCc1cncc(C#N)c1)C(N)=O | > 8.30
49 | N#Cc1cncc(COc2cc(O[C@H]3CCc4c(-c5cccc(OCCCN6CCC(F)CC6)c5Cl)cccc43)c(Cl)cc2CN[C@@H]2CCCC[C@@H]2O)c1 | > 8.30
50 | Cc1c(OCCCN2CCC(O)CC2)cccc1-c1cccc2c1CC[C@@H]2Oc1cc(OCc2cncc(C#N)c2)c(CN[C@H](C(=O)NS(C)(=O)=O)[C@@H](C)O)cc1Cl | > 8.30
51 | CC(CO)(NCc1cc(Cl)c(O[C@H]2CCc3c(-c4cccc(OCCCN5CC6(CC(O)C6)C5)c4Cl)cccc32)cc1OCc1cncc(C#N)c1)C(=O)O (stereo partly shown) | > 8.30
52 | CC(C)(O)[C@H](NCc1cc(Cl)c(O[C@H]2CCc3c(-c4cccc(OCCCN5CCC(F)CC5)c4Cl)cccc32)cc1OCc1cncc(C#N)c1)C(=O)O | > 8.30
